For one assay, the target named is h-Sortilin (Homo sapiens (Human), UniProt Q99523). Briefly: Neurotensin (NTS) scintillation proximity assay (SPA): displacement of [3H]-neurotensin binding. The following applies: 150 nM 6his-Sortilin, 5 nM [3H]-Neurotensin, average of at least 2 determinations. The protocol: The exemplified compounds of the invention were tested in a Neurotensin (NTS) scintillation proximity assay (SPA). NTS, which is a 13 amino acid neuropeptide, is a sortilin ligand. The IC50 is a measure of the amount of the compound required to inhibit the binding of NTS to sortilin by 50%. […] Compound affinity was determined by measuring the displacement of [^3H]-neurotensin binding to h-Sortilin in SPA format. […] IC50 values were calculated by nonlinear regression using the sigmoid concentration-response (variable slope) using CDD Vault software. All values reported are average of at least 2 determinations.
In general terms: Scintillation proximity formats need no separation of bound from free tracer.

For the next assay, the target named is human Sortilin (Homo sapiens (Human), UniProt Q99523). In words: Creoptix (GCI) binding kinetics, human Sortilin. The following applies: screened at 1 μM. The protocol:
A protein, bound to a surface, is bathed in a solution containing potential ligands giving rise to binding kinetics to generate Kon and Koff rates, as well as a Kd.
All buffers described were filtered using a 0.2 μm filter (Product number: 10300461, Nalgene) and degassed for 15 minutes prior to use.
A flow cell temperature of 25 degrees Celsius was used throughout the experiment.
A 4PCH chip was conditioned across all flow cells using 0.2× concentration running buffer (running buffer composition: 1×HBS-N, pH 7.4, 3.4 mM EDTA, 1% DMSO) using pre-set conditioning wizard (WAVE control software) injecting: 0.1 M borate, 1 M NaCl (pH 9) followed by three start-up injections of 0.2× running buffer.
A buffer exchange was performed and 1× running buffer (1×HBS-N, pH 7.4, 3.4 mM EDTA, 1% DMSO) used during the immobilisation procedure:
An initial injection of EDC/NHS (mixed in 1:1 ratio) was performed across all 4-flow cells to activate the surface for amine coupling of ligands.
Recombinant Sortilin aliquots were thawed quickly by hand and centrifuged at 13,300 rpm for 10 minutes. A 10 μg/ml protein solution was then made in pH 5.0 acetate and injected once for 20 minutes over flow-cells 2, 3 and 4 for human, human (flow cells 2 & 3), and mouse Sortilin respectively followed by a 60 second dissociation period.
A final 7-minute passivation injection of 50 mM tris was used across all flow cells.
A flow rate of 10 μl/min was used for all conditioning and immobilisation cycles.
Compounds were screened at 1 μM using the in-built ‘intermediate binders’ settings: 100 ul/min, 45 s baseline, 25 s association, 300 s dissociation, with blanks every 5th sample and a DMSO correction (1.5% DMSO at the start and end of the experiment as well as every 20 cycles. An acquisition rate of 10 Hz was used throughout the experiment.
Compounds were screened at a final assay concentration of 1 μM and a final DMSO concentration was 1%. To achieve this, compounds were diluted in DMSO from 10 mM stocks to 100 μM (100×final assay concentration) then diluted 1:100 in running buffer which contained no DMSO to establish a final assay concentration of compound of 1 μM and a final DMSO concentration of 1% [DMSO].
Compounds and DMSO were mixed by plate shaking at 1000 rpm for 60 seconds using a Bioshake instrument.
A flow rate of 100 μl/min was used throughout the experiment.
Data was evaluated using the RAPID kinetic analysis tool in the GCI WAVE_control software with data fitted using a standard 1:1 kinetic BioModel.

Counter-ions that a name gives are not always drawn.

The IC50 is the point on the concentration scale where inhibition reaches its midpoint. High values mean weaker potency in that assay, low ones greater potency in that assay. The term Kd denotes the concentration at which binding is half-saturated.

h-Sortilin, sequence (Q99523 78-831): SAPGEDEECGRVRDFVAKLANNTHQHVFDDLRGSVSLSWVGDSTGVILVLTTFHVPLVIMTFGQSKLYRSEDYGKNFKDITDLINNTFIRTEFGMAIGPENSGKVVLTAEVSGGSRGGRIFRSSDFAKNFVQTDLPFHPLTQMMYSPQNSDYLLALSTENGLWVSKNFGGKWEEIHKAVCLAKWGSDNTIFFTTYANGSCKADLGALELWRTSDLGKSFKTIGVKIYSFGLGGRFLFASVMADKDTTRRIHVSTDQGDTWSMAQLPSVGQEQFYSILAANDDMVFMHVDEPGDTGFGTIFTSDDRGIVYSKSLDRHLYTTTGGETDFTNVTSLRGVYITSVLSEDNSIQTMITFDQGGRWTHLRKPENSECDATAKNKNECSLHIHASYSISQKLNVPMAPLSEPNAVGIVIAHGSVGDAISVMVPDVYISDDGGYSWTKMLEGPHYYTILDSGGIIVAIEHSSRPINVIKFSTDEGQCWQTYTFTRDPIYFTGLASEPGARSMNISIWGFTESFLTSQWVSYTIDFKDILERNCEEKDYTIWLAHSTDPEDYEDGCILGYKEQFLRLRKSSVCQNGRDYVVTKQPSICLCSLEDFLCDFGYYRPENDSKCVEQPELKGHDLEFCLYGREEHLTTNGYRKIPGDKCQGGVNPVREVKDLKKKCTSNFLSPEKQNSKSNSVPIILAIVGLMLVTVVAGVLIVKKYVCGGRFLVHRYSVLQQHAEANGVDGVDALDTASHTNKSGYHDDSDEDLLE
human Sortilin, sequence (Q99523 78-755): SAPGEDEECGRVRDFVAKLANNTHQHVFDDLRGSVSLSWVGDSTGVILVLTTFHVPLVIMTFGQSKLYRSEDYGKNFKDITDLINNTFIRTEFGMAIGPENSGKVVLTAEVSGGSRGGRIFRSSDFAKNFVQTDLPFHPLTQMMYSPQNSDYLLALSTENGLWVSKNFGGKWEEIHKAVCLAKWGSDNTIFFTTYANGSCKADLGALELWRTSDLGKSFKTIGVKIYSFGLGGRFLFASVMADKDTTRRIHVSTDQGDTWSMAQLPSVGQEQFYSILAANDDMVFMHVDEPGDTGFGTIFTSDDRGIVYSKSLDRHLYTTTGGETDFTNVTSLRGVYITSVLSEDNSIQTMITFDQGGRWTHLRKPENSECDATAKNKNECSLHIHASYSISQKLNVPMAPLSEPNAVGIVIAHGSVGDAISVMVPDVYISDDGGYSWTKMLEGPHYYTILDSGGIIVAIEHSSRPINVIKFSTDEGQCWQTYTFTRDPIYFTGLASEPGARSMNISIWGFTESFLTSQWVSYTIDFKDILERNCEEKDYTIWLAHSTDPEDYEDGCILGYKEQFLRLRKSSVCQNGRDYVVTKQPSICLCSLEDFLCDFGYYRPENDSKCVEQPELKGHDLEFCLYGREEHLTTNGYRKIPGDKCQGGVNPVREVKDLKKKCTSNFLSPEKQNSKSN

Take `COc1cccc([C@H](N[C@@H](CCC(C)(C)C)C(=O)O)C(F)F)c1` [Example 21, (2S)-2-{[(1S)-2,2-difluoro-1-(3-methoxyphenyl)ethyl]amino}-5,5-dimethylhexanoic acid]: the IC50 on h-Sortilin is 270 nM. The same molecule displayed a dissociation constant Kd on human Sortilin (Free acid) of 284 nM.
The like results for `COc1cncc(CN[C@@H](CCC(C)(C)C)C(=O)O)c1` [Example 144, (2S)-2-{[(5-methoxypyridin-3-yl)methyl]amino}-5,5-dimethylhexanoic acid] were, in that order, 430 nM and 310 nM.
`CC(C)(C)CC[C@H](NCc1ccc2c(c1)OCCO2)C(=O)O` [Example 41, (2S)-2-{[(2,3-dihydro-1,4-benzodioxin-6-yl)methyl]amino}-5,5-dimethylhexanoic acid] displayed a half-maximal inhibitory concentration (IC50) on h-Sortilin of 330 nM. On human Sortilin (Free acid), this molecule displayed a dissociation constant Kd of 5960 nM.
`CC(C)(C)CC[C@H](NCc1ccccc1)C(=O)O` [Example 3, (S)-2-(benzylamino)-5,5-dimethylhexanoic acid hydrochloride] came in with an IC50 at h-Sortilin of 766 nM. For the same molecule, on human Sortilin (HCl salt), the dissociation constant (Kd) was determined as 902 nM.
With `CC(C)(C)CC[C@H](NCc1cccc2c1OCO2)C(=O)O` [Example 45, (2S)-2-{[(2H-1,3-benzodioxol-4-yl)methyl]amino}-5,5-dimethylhexanoic acid], at h-Sortilin, the IC50 came out at 1060 nM. This molecule also gave a dissociation constant Kd on human Sortilin (Free acid) of 285 nM.
The like results for `COc1ccc(F)c(CN[C@@H](CCC(C)(C)C)C(=O)O)c1` [Example 140, (2S)-2-{[(2-fluoro-5-methoxyphenyl)methyl]amino}-5,5-dimethylhexanoic acid] were, in that order, 850 nM and 456 nM.
The like results for `COc1cccc([C@@H](N[C@@H](CCC(C)(C)C)C(=O)O)C(F)(F)F)c1` [Example 23, (2S)-5,5-dimethyl-2-{[(1R)-2,2,2-trifluoro-1-(3-methoxyphenyl)ethyl]amino}hexanoic acid] were, in that order, 390 nM and 4020 nM.
As for `CC(C)(C)CC[C@H](NCc1ccc(Cl)c(Cl)c1)C(=O)O` [Example 125, (2S)-2-{[(3,4-dichlorophenyl)methyl]amino}-5,5-dimethylhexanoic acid], the concentration for half-maximal inhibition (IC50) at h-Sortilin amounted to 550 nM. For the same molecule, the Kd on human Sortilin (Ms salt) is 522 nM.
As for `CC(C)(C)CC[C@H](NCc1cnc2cccnc2c1)C(=O)O` [Example 103, (2S)-5,5-dimethyl-2-{[(1,5-naphthyridin-3-yl)methyl]amino}hexanoic acid], the IC50 on h-Sortilin was 160 nM. On human Sortilin (Free acid), the equilibrium dissociation constant (Kd) was found to be 83.2 nM.
With `COc1ccc(CN[C@@H](CCC(C)(C)C)C(=O)O)cc1OC` [Example 38, (2S)-2-{[(3,4-dimethoxyphenyl)methyl]amino}-5,5-dimethylhexanoic acid], at h-Sortilin, the IC50 worked out at 1360 nM. The Kd on human Sortilin (Free acid) came out at 747 nM.
Molecule `Cn1ccc2cc(CN[C@@H](CCC(C)(C)C)C(=O)O)cnc21` [Example 106, (2S)-5,5-dimethyl-2-[({1-methyl-1H-pyrrolo[2,3-b]pyridin-5-yl}methyl)amino]hexanoic acid] showed a half-maximal inhibitory concentration (IC50) on h-Sortilin of 590 nM.
Still for that read-out and setting: the value for `CC(C)(C)CC[C@H](NCc1ccccc1C(F)(F)F)C(=O)O` [Example 13, (2S)-5,5-dimethyl-2-({[2-(trifluoromethyl)phenyl]methyl}amino)hexanoic acid] was 1020 nM.
On human Sortilin (Free acid), `COc1cccc([C@H](N[C@@H](CCC(C)(C)C)C(=O)O)C(F)(F)F)c1` [Example 24, (2S)-5,5-dimethyl-2-{[(1S)-2,2,2-trifluoro-1-(3-methoxyphenyl)ethyl]amino}hexanoic acid] came in with a Kd of 230 nM.
On h-Sortilin, `CC(C)(C)CC[C@H](NCc1cncc2ccccc12)C(=O)O` [Example 80] displayed a 50% inhibitory concentration (IC50) of 790 nM. That is a sub-micromolar value.
For the molecule `CC(N[C@@H](CCC(C)(C)C)C(=O)O)c1cncnc1` (stereo partly drawn) [Example 141, (2S)-5,5-dimethyl-2-((1-(pyrimidin-5-yl)ethyl)amino)hexanoic acid, HCl], the IC50 at h-Sortilin (HCl) worked out at 640 nM.
As to `CC(C)(C)CC[C@H](NCc1ccccc1F)C(=O)O` [Example 11, (2S)-2-{[(2-fluorophenyl)methyl]amino}-5,5-dimethylhexanoic acid], at h-Sortilin, the IC50 worked out at 1830 nM. This counts as single-digit micromolar.
On the same count and under the same terms, for `CC(C)(C)CC[C@H](NCc1cccnc1)C(=O)O` [Example 71, (2S)-5,5-dimethyl-2-{[(pyridin-3-yl)methyl]amino}hexanoic acid] the value was 1130 nM; for `CC(C)(C)CC[C@H](NCc1ccncc1)C(=O)O` [Example 58, (2S)-5,5-dimethyl-2-{[(pyridin-4-yl)methyl]amino}hexanoic acid], 810 nM.
The same measure, in the same setting: for `CC(C)(C)CC[C@H](NC(c1ccccc1)c1ccccc1)C(=O)O` [Example 8, (S)-2-(benzhydrylamino)-5,5-dimethylhexanoic acid hydrochloride] the value was 270 nM; for `COc1ccc2cc(CN[C@@H](CCC(C)(C)C)C(=O)O)ccc2c1` [Example 85], 1050 nM.
The same measure, in the same setting: the value for `Cn1ccc2cccc(CN[C@@H](CCC(C)(C)C)C(=O)O)c21` [Example 68] was 1200 nM.
Molecule `COc1ccc2ccccc2c1CN[C@@H](CCC(C)(C)C)C(=O)O` [Example 49, (2S)-2-{[(2-methoxynaphthalen-1-yl)methyl]amino}-5,5-dimethylhexanoic acid] registered an IC50 on h-Sortilin of 1990 nM.
In turn, `CC(C)(C)CC[C@H](NCc1cncc(Br)c1)C(=O)O` [Example 77, (2S)-2-{[(5-bromopyridin-3-yl)methyl]amino}-5,5-dimethylhexanoic acid] had an IC50 at h-Sortilin of 600 nM.
On the same count and under the same terms, for `Cc1cccc(CN[C@@H](CCC(C)(C)C)C(=O)O)c1C` [Example 83, (2S)-2-{[(2,3-dimethylphenyl)methyl]amino}-5,5-dimethylhexanoic acid] the value was 700 nM.
`CC(C)(C)CC[C@H](NCc1cccc2cnccc12)C(=O)O` [Example 81] yielded a half-maximal inhibitory concentration (IC50) at h-Sortilin of 790 nM.
The same measure, in the same setting: the value for `CC(C)(C)CC[C@H](NCc1cccc2ccncc12)C(=O)O` [Example 7, (2S)-2-{[(isoquinolin-8-yl)methyl]amino}-5,5-dimethylhexanoic acid] was 950 nM; that for `CC(C)(C)CC[C@H](N[C@H](c1ccccc1)C(F)F)C(=O)O` [Example 19, (2S)-2-{[(1R)-2,2-difluoro-1-phenylethyl]amino}-5,5-dimethylhexanoic acid] was 565 nM; that for `Cn1ncc2c(CN[C@@H](CCC(C)(C)C)C(=O)O)cccc21` [Example 61, (2S)-5,5-dimethyl-2-{[(1-methyl-1H-indazol-4-yl)methyl]amino}hexanoic acid] was 2830 nM.
Same read-out and setting: for `COc1ccc(CN[C@@H](CCC(C)(C)C)C(=O)O)cc1` [Example 133, (2S)-2-{[(4-methoxyphenyl)methyl]amino}-5,5-dimethylhexanoic acid] the value was 820 nM; for `CC(C)(C)CC[C@H](NC1=Nc2ccccc2Oc2ccccc21)C(=O)O` [Example 20, (2S)-5,5-dimethyl-2-({2-oxa-9-azatricyclo[9.4.0.0^3,8]pentadeca-1(11),3(8),4,6,9,12,14-heptaen-10-yl}amino)hexanoic acid], 1490 nM; for `COc1ccc(CN[C@@H](CCC(C)(C)C)C(=O)O)c2ccccc12` [Example 79], 950 nM.
For `CC(C)(C)CC[C@H](NCc1ccc2scnc2c1)C(=O)O` [Example 51, (2S)-2-{[(1,3-benzothiazol-5-yl)methyl]amino}-5,5-dimethylhexanoic acid], the IC50 at h-Sortilin was determined as 320 nM.
